Data from patent US9624247B2, “Pyrazolo-pyrrolidin-4-one derivatives as bet inhibitors and their use in the treatment of disease” (NOVARTIS AG, priority 2013, dated 2017).
Like-named read-outs stand apart in the source and are kept apart here.

Experiments:
[1] = target: CREBBP bromodomain (His-CREBBP(1081-1197)) (Homo sapiens (Human), UniProt Q92793); test: AlphaScreen in-vitro binding assay for CREBBP
Procedure: AlphaScreen In-Vitro Binding Assay for CREBBP
In order to assess bromodomain selectivity, we set up a binding assay using the bromodomain encoded by the CREBBP gene. […] Reactions were incubated at 30° C. for 35 minutes. Subsequently 4.5 μl per well detection mix (50 mM HEPES, pH 7.5, 0.005% Tween20, 0.02% BSA, 150 mM NaCl, 45 μg/ml Ni-chelate acceptor beads, 45 μg/ml streptavidin-donor beads) (Perkin Elmer)) were added. After 60 minutes incubation at room temperature, plates were measured in a Perkin Elmer EnVision multilabel reader. IC50 values were determined from percent inhibition values at different compound concentrations by non-linear regression analysis.
(§1) Preparation of Compound Dilutions
(§2) Test compounds were dissolved in DMSO (10 mM) and transferred into 1.4 mL flat bottom or V-shaped Matrix tubes carrying a unique 2D matrix. The stock solutions were stored at […] if not used immediately. For the test procedure the vials were defrosted and identified by a scanner whereby a working sheet was generated that guided the subsequent working steps. Compound dilutions were made in 96 well plates. This format enabled the assay of maximally 40 individual test compounds at 8 concentrations (single points) including 4 reference compounds, if desired (known BET inhibitors from the prior art, for this and other assays of the type disclosed herein). The dilution protocol included the production of “pre-dilution plates”, “master plates” and “assay plates”.
(§3) Pre-dilution plates: 96 polypropylene well plates were used as pre-dilution plates. A total of 4 pre-dilution plates were prepared including 10 test compounds each on the plate positions A1-A10, one standard compound at A11 and one DMSO control at A12. All dilution steps were done on a HamiltonSTAR robot.
(§4) These plates were used directly for the assay which was performed in a total volume of 13.55 μL.

MV-4-11 cells = test: Cell growth inhibition assay (CellTiter-Glo), MV-4-11; format: cell-based, human; details: MV-4-11, 4 days; for GI50: Homo sapiens, MV4-11, 96 h, half-maximal growth inhibition; for MV-4-11 TGI: total growth inhibition
Procedure: (§5) Cell Growth Inhibition Assay
(§6) The human leukemia cell lines MV-4-11, THP-1 and K-562 were employed to characterize the effect of BET inhibitors on cellular proliferation and viability. Cells were obtained from the American Type Culture Collection (ATCC) and cultured at 37° C. in a humidified 5% CO2 incubator in the following media: MV-4-11: DMEM high glucose (Animed #1-26F01-I), 10% FCS (Animed #2-01F26-I), 4 mM L-Glutamine (Animed #5-10K50), 1 mM Sodium Pyruvate (Animed #G03625P), lx Penicillin-Streptomycin (Animed #F12478P); K-562: Iscove's MEM (Animed #1-28F16-I), 10% FCS (Animed #2-01F26-I), 4 mM L-Glutamine (Animed #5-10K50), 1× Penicillin-Streptomycin (Animed #F12478P); THP-1: RPMI-1640 (Animed #1-41F01-I), 10% FCS (Animed #2-01F26-I), 2 mM L-Glutamine (Animed #5-10K50), 10 mM HEPES (Animed #5-31F100), 1 mM Sodium Pyruvate (Animed #G03625P), 1× Penicillin-Streptomycin (Animed #F12478P). The AML lines MV-4-11 and THP-1 are very sensitive to BET inhibitors and show massive cell death upon BET inhibition (Zuber et al., Nature, 478 (2011), 524-8). Compound-mediated suppression of cell proliferation/viability was assessed by quantification of cellular ATP levels using the CellTiter-Glo (CTG) reagent (Promega). Briefly, cells were seeded in 20 μl fresh medium into 384-well plates, followed by addition of 5 μl medium containing compound dilutions at 5-fold their final intended concentration. Dose-response effects were assessed by 3-fold serial dilutions of the test compound, starting at 10 μM. Following incubation of the cells for 4 days at 37° C. and 5% CO2, the effect of inhibitors on cell viability was quantified following addition of 20 μl CTG and luminescence quantification (integration time: 100 ms) as per vendor manual, using a correspondingly equipped Tecan M200 multi-mode platereader (TECAN, Switzerland). For data analysis, the assay background value determined in wells containing medium, but no cells, was subtracted from all data points. To enable differentiation of cytotoxic from cytostatic compounds, the number of viable cells is assessed relative to that observed at the time of compound addition using a separate cell plate (day 0). The effect of a particular test compound concentration on cell proliferation/viability is expressed as percentage of the background- and day 0-corrected luminescence reading obtained for cells treated with vehicle only (DMSO, 0.1% final concentration), which is set as 100%, whereas that luminescence reading for wells containing medium is set as −100%. Compound concentrations leading to half-maximal (IC50) and total growth inhibition (TGI) were determined using standard four parameter curve fitting.

K-562 cells = test: Cell growth inhibition assay (CellTiter-Glo), K-562; format: cell-based, human; details: K-562, 4 days; for GI50: Homo sapiens, K562, 96 h, half-maximal growth inhibition; for K-562 TGI: total growth inhibition
Procedure: as §5, §6

THP-1 cells = test: Cell growth inhibition assay (CellTiter-Glo), THP-1; format: cell-based, human; details: THP-1, 4 days; for GI50: Homo sapiens, 96 h, half-maximal growth inhibition; for THP-1 TGI: total growth inhibition
Procedure: as §5, §6

BRD3 (His-Brd3(20-477)) = BRD3 (His-Brd3(20-477)) (Homo sapiens (Human), UniProt Q15059); test: TR-FRET in-vitro binding assay for BRD3; details: acetyl-histone H4 peptide
Sequence of BRD3 (His-Brd3(20-477)) (Q15059 20-477): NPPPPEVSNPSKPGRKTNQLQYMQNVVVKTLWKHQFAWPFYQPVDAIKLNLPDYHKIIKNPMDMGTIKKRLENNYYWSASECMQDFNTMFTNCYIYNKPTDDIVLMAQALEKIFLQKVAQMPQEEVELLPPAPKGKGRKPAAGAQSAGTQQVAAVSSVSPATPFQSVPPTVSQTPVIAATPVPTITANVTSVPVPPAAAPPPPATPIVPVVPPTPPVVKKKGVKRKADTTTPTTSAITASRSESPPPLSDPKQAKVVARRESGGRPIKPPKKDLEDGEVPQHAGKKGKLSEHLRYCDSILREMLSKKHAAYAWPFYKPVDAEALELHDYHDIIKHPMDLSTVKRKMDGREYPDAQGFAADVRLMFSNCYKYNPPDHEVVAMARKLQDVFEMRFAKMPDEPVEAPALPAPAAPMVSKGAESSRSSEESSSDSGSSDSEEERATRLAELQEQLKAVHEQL
Procedure: (§7) TR-FRET In-Vitro Binding Assays for BRD2, BRD3, and BRD4:
All assays were performed in 384 well microtiter plates. Each assay plate contained 8-point serial dilutions for 40 test compounds, plus 16 high- and 16 low controls. Liquid handling and incubation steps were done on an Innovadyne Nanodrop Express equipped with a robotic arm (Thermo CatX, Perkin Elmer/Caliper Twister II) and an incubator (Liconic STX40, Thermo Cytomat 2C450). The assay plates were prepared by addition of 50 nl per well of compound solution in 90% DMSO HummingBird nanodispenser (Zinsser Analytic). […] Reactions were incubated at 30° C. for 35 minutes. […] After 35 minutes incubation at 30° C., plates were measured in a Perkin Elmer EnVision multilabel reader.
as §1, §2, §3, §4

BRD2 (His-Brd2(60-472)) = BRD2 (His-Brd2(60-472)) (Homo sapiens (Human), UniProt P25440); test: TR-FRET in-vitro binding assay for BRD2; details: acetyl-histone H4 peptide
Sequence of BRD2 (His-Brd2(60-472)) (P25440 60-472): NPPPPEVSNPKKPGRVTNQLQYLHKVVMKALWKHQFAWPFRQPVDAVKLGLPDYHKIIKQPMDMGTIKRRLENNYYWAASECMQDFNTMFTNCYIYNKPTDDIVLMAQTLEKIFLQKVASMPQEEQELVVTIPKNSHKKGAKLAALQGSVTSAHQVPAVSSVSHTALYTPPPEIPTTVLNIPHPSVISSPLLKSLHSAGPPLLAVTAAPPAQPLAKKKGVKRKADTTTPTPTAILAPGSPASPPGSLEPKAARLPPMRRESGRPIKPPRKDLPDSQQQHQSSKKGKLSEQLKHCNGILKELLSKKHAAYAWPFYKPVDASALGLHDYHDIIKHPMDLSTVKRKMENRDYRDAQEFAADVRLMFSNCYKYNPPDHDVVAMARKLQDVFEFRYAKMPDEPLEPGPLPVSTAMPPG
Procedure: as §7
(§8) All assays were performed in 384 well microtiter plates. Each assay plate contained 8-point serial dilutions for 40 test compounds, plus 16 high- and 16 low controls. Liquid handling and incubation steps were done on an Innovadyne Nanodrop Express equipped with a robotic arm (Thermo CatX, Perkin Elmer/Caliper Twister II) and an incubator (Liconic STX40, Thermo Cytomat 2C450). The assay plates were prepared by addition of 50 nl per well of compound solution in 90% DMSO HummingBird nanodispenser (Zinsser Analytic). The assay was started by stepwise addition of 4.5 μl per well of bromo domain protein (50 mM HEPES, pH 7.5, 0.005% Tween20, 0.1% BSA, 50 mM NaCl, 45 nM His-Brd2(60-472) or 45 nM His-Brd3(20-477) or 45 nM His-Brd4(44-477) all proteins produced in-house) and 4.5 μl per well of peptide solution (50 mM HEPES, pH 7.5, 0.005% Tween20, 0.1% BSA, 50 mM NaCl, 60 nM acetyl-histone H4 (AcK 5, 8, 12, 16) (Biosyntan GmbH)). Reactions were incubated at 30° C. for 35 minutes. […] After 35 minutes incubation at 30° C., plates were measured in a Perkin Elmer EnVision multilabel reader. Concentrations causing 50% inhibition (IC50 values) were determined from percent inhibition values at different compound concentrations by non-linear regression analysis.
as §1, §2, §3
(§9) Master plates: 30 μL of individual compound dilutions including standard compound and controls of the 4 “pre-dilution plates” were transferred into a 384 “master plate” including the following concentrations 10000, 3003, 1000, 300, 100, 30, 10 and 3 μM, respectively in 90% of DMSO.
(§10) Assay plates: Identical “assay plates” were then prepared by pipetting 50 nL each of compound dilutions of the “master plates” into 384-well “assay plates” by means of a HummingBird 384-channel dispenser. These plates were used directly for the assay which was performed in a total volume of 13.55 μL. This led to a final compound concentration of 37, 11, 3.7, 1.1, 0.37, 0.11, 0.037 and 0.011 μM and a final DMSO concentration of 0.37% in the assay.

BRD4 (His-Brd4(44-477)) = BRD4 (His-Brd4(44-477)) (Homo sapiens (Human), UniProt O60885); test: TR-FRET in-vitro binding assay for BRD4; details: acetyl-histone H4 peptide
Procedure: as §7, §8, §1, §2, §3, §9, §10

[2] = AlphaScreen, acetyl-histone H4 peptide, read-out: CREBBP IC50

Sequence of CREBBP bromodomain (His-CREBBP(1081-1197)) (Q92793 1081-1197): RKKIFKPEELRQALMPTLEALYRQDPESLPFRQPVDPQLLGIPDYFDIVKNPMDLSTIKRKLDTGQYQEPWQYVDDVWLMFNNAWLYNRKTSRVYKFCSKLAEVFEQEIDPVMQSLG

SMILES	IC50 [1, 2] [nM]	GI50 (MV-4-11 cells) [nM]	MV-4-11 TGI (MV-4-11 cells) [nM]	GI50 (K-562 cells) [nM]	K-562 TGI (K-562 cells) [nM]	GI50 (THP-1 cells) [nM]	THP-1 TGI (THP-1 cells) [nM]	IC50 (BRD3 (His-Brd3(20-477))) [nM]	IC50 (BRD2 (His-Brd2(60-472))) [nM]	IC50 (BRD4 (His-Brd4(44-477))) [nM]	IC50 [1] [nM]
Cc1cc(N2C(=O)c3c(C4CC4)nn(C)c3C2c2ccc(Cl)cc2)cc2c1nnn2C (racemic) [Example 8, 6-(4-chlorophenyl)-3-cyclopropyl-5-(1,4-dimethyl-1H-benzo[d][1,2,3]triazol-6-yl)-1-methyl-5,6-dihydropyrrolo[3,4-c]pyrazol-4(1H)-one]	4800	4.71	9.53	24.8	>10000	7.29	17.6				
COc1ncccc1-c1nn(C)c2c1C(=O)N(c1cc(C)c3nnc(C)n3c1)C2c1ccc(Cl)cc1 (racemic) [Example 12, 6-(4-chlorophenyl)-5-(3,8-dimethyl-[1,2,4]triazolo[4,3-a]pyridin-6-yl)-3-(2-methoxypyridin-3-yl)-1-methyl-5,6-dihydropyrrolo[3,4-c]pyrazol-4(1H)-one]	12200	17.5	37.8	106	>10000	40.5	97.35	31	42	32	
Cc1cc(N2C(=O)c3c(C4CC4)nn(C)c3[C@H]2c2ccc(Cl)cc2)cc2c1nnn2C [Example 9, (R)-6-(4-chlorophenyl)-3-cyclopropyl-5-(1,4-dimethyl-1H-benzo[d][1,2,3]triazol-6-yl)-1-methyl-5,6-dihydropyrrolo[3,4-c]pyrazol-4(1H)-one]	3200	2.57	5.745	14.3	>10000	4.41	10.76				
COc1ncccc1-c1n[nH]c2c1C(=O)N(c1cc(C)c3nnc(C)n3c1)C2c1ccc(Cl)cc1 (stereo not shown) [Example 10, 6-(4-chlorophenyl)-5-(3,8-dimethyl-[1,2,4]triazolo[4,3-a]pyridin-6-yl)-3-(2-methoxypyridin-3-yl)-5,6-dihydropyrrolo[3,4-c]pyrazol-4(1H)-one]		34.5	64.3	135	>10000	60.4	136.8	45	48	30	> 37000
COc1ncccc1-c1n[nH]c2c1C(=O)N(c1cc(C)c3nnc(C)n3c1)[C@@H]2c1ccc(Cl)cc1 [Example 11, (R)-6-(4-chlorophenyl)-5-(3,8-dimethyl-[1,2,4]triazolo[4,3-a]pyridin-6-yl)-3-(2-methoxypyridin-3-yl)-5,6-dihydropyrrolo[3,4-c]pyrazol-4(1H)-one]	> 37000	9.55	17.4	98.4	>10000	28.2	42.8	37	46	42	
COc1ncccc1-c1nn(C)c2c1C(=O)N(c1cc(C)c3nnc(C)n3c1)[C@@H]2c1ccc(Cl)cc1 [Example 13, (R)-6-(4-chlorophenyl)-5-(3,8-dimethyl-[1,2,4]triazolo[4,3-a]pyridin-6-yl)-3-(2-methoxypyridin-3-yl)-1-methyl-5,6-dihydropyrrolo[3,4-c]pyrazol-4(1H)-one]	5400	14.2	29.8	96.5	>10000	28.4	64.65	22	34	24	
COc1cc(N2C(=O)c3c(C4CC4)nn(C)c3[C@H]2c2ccc(Cl)cc2)cn2c(C)nnc12 [Example 14, (R)-6-(4-chlorophenyl)-3-cyclopropyl-5-(8-methoxy-3-methyl-[1,2,4]triazolo[4,3-a]-pyridin-6-yl)-1-methyl-5,6-dihydropyrrolo[3,4-c]pyrazol-4(1H)-one]	27500	20.1	39.55	152	>10000	51.4	118.5	55	57	30	
